PubChem BioAssay AID200 (DTP/NCI, 2004)
Values joined by “and” are separate entries in the source; they are usually repeats but may differ in a detail not shown here. Equal values may be shown once. Toxic doses and inconclusive results are not listed.

System: B6C3F1 mice, B16 melanoma ip, median survival T/C
Test: NCI In Vivo Anticancer Drug Screen. Data for tumor model B16 Melanoma (intraperitoneal) in B6C3F1 mice
Conditions: endpoint: median survival time, higher = longer survival
Outline: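 Tumor-bearing mice received test compound; a separate group got vehicle only. Survival was then compared, with results reported as treated over control.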

[1] = dose: 6.25 mg/kg/injection, schedule: Q01DX009 (ip), vehicle: Klucel (hydroxypropylcellulose) (HPC)
[2] = dose: 6.25 mg/kg/injection, schedule: Q01DX009 (ip), vehicle: saline with Tween-80
[3] = dose: 12.5 mg/kg/injection, schedule: Q01DX009 (ip), vehicle: saline with Tween-80
[4] = dose: 25.0 mg/kg/injection, schedule: Q01DX009 (ip), vehicle: saline with Tween-80
[5] = dose: 50.0 mg/kg/injection, schedule: Q01DX009 (ip), vehicle: saline with Tween-80
[6] = dose: 100.0 mg/kg/injection, schedule: Q01DX009 (ip), vehicle: Klucel (hydroxypropylcellulose) (HPC)
[7] = dose: 100.0 mg/kg/injection, schedule: Q01DX009 (ip), vehicle: saline with Tween-80
[8] = dose: 200.0 mg/kg/injection, schedule: Q01DX009 (ip), vehicle: saline with Tween-80
[9] = dose: 400.0 mg/kg/injection, schedule: Q01DX009 (ip), vehicle: saline with Tween-80
[10] = dose: 3.12 mg/kg/injection, schedule: Q01DX009 (ip), vehicle: saline
[11] = dose: 6.25 mg/kg/injection, schedule: Q01DX009 (ip), vehicle: saline
[12] = dose: 12.5 mg/kg/injection, schedule: Q01DX009 (ip), vehicle: saline
[13] = dose: 12.5 mg/kg/injection, schedule: Q01DX009 (ip), vehicle: distilled water + Tween-80
[14] = dose: 25.0 mg/kg/injection, schedule: Q01DX009 (ip), vehicle: distilled water + Tween-80
[15] = dose: 1.5 mg/kg/injection, schedule: Q01DX009 (ip), vehicle: Klucel (hydroxypropylcellulose) (HPC)
[16] = dose: 3.0 mg/kg/injection, schedule: Q01DX009 (ip), vehicle: Klucel (hydroxypropylcellulose) (HPC)
[17] = dose: 6.0 mg/kg/injection, schedule: Q01DX009 (ip), vehicle: Klucel (hydroxypropylcellulose) (HPC)

Structure (SMILES): CC(C)(C)C(=O)CC(=O)C(F)(F)C(F)(F)C(F)(F)F.CC(C)(C)C(=O)CC(=O)C(F)(F)C(F)(F)C(F)(F)F.CC(C)(C)C(=O)CC(=O)C(F)(F)C(F)(F)C(F)(F)F.[Er]
- T/C (dose: 12.5 mg/kg/injection, schedule: Q01DX009 (ip), vehicle: saline + alcohol): 105 % of control
- T/C (dose: 25.0 mg/kg/injection, schedule: Q01DX009 (ip), vehicle: saline + alcohol): 118 % of control
- T/C (dose: 50.0 mg/kg/injection, schedule: Q01DX009 (ip), vehicle: saline + alcohol): 109 % of control
- T/C (dose: 100.0 mg/kg/injection, schedule: Q01DX009 (ip), vehicle: saline + alcohol): 111 % of control

Structure (SMILES): Nc1ccc(S(=O)(=O)c2ccc(N)cc2)cc1
- T/C [1]: 95 % of control
- T/C [2]: 103 % of control
- T/C (dose: 12.5 mg/kg/injection, schedule: Q01DX009 (ip), vehicle: Klucel (hydroxypropylcellulose) (HPC)): 106 % of control
- T/C [3]: 93 % of control
- T/C (dose: 25.0 mg/kg/injection, schedule: Q01DX009 (ip), vehicle: Klucel (hydroxypropylcellulose) (HPC)): 96 % of control
- T/C [4]: 101 % of control
- T/C (dose: 50.0 mg/kg/injection, schedule: Q01DX009 (ip), vehicle: Klucel (hydroxypropylcellulose) (HPC)): 92 % of control
- T/C [5]: 93 % of control and 100 % of control
- T/C [6]: 90 % of control
- T/C [7]: 87 % of control and 98 % of control
- T/C [8]: 88 % of control
- T/C [9]: 86 % of control

Structure (SMILES): Nc1cc(=O)[nH][nH]1
- T/C [7]: 91 % of control
- T/C [8]: 96 % of control
- T/C [9]: 98 % of control

Structure (SMILES): COC(=O)Nc1ccc(Cc2ccc(NC(=O)OC)cc2)cc1
- T/C [2]: 98 % of control
- T/C [3]: 99 % of control
- T/C [4]: 109 % of control and 98 % of control
- T/C [5]: 109 % of control
- T/C [7]: 150 % of control

Structure (SMILES): O=c1[nH]c2c(ccc3cnccc32)c2c1CCC2
- T/C [10]: 97 % of control
- T/C [11]: 113 % of control
- T/C [12]: 119 % of control

Structure (SMILES): NC(=O)/C=C/C(N)=O
- T/C [3]: 113 % of control
- T/C [4]: 109 % of control
- T/C [5]: 89 % of control

Structure (SMILES): CNC(=O)OCc1c(COC(=O)NC)c(-c2ccccc2)n(C)c1-c1ccccc1
- T/C [13]: 172 % of control
- T/C [14]: 177 % of control

Structure (SMILES): CCCCC(NC(=O)OC(C)(C)C)C(=O)O (stereo not given)
- T/C [6]: 97 % of control
- T/C (dose: 200.0 mg/kg/injection, schedule: Q01DX009 (ip), vehicle: Klucel (hydroxypropylcellulose) (HPC)): 111 % of control
- T/C (dose: 400.0 mg/kg/injection, schedule: Q01DX009 (ip), vehicle: Klucel (hydroxypropylcellulose) (HPC)): 90 % of control

Structure (SMILES): CC[C@H](CC[C@@H](C)C1CC[C@H]2[C@@H]3CC=C4C[C@@H](OP(=O)(N5CC5)N5CC5)CC[C@]4(C)[C@H]3CC[C@]12C)C(C)C (stereo not given in full)
- T/C [3]: 95 % of control and 99 % of control
- T/C [4]: 110 % of control and 101 % of control
- T/C [5]: 90 % of control and 97 % of control
- T/C [7]: 91 % of control and 94 % of control
- T/C [8]: 93 % of control and 95 % of control

Structure (SMILES): O=S(O)O
- T/C (dose: 50.0 mg/kg/injection, schedule: Q01DX009 (ip), vehicle: saline): 107 % of control
- T/C (dose: 100.0 mg/kg/injection, schedule: Q01DX009 (ip), vehicle: saline): 115 % of control
- T/C (dose: 200.0 mg/kg/injection, schedule: Q01DX009 (ip), vehicle: saline): 98 % of control
- T/C (dose: 400.0 mg/kg/injection, schedule: Q01DX009 (ip), vehicle: saline): 102 % of control

Structure (SMILES): [Cl][Sn]([c]1ccccc1)[c]1ccccc1
- T/C [10]: 116 % of control
- T/C (dose: 3.13 mg/kg/injection, schedule: Q01DX009 (ip), vehicle: saline): 93 % of control
- T/C [11]: 122 % of control and 106 % of control
- T/C [12]: 107 % of control
- T/C (dose: 25.0 mg/kg/injection, schedule: Q01DX009 (ip), vehicle: saline): 118 % of control

Structure (SMILES): O=C(O)CCCCCCCC(=O)O
- T/C [13]: 91 % of control
- T/C [14]: 101 % of control
- T/C (dose: 50.0 mg/kg/injection, schedule: Q01DX009 (ip), vehicle: distilled water + Tween-80): 101 % of control
- T/C (dose: 100.0 mg/kg/injection, schedule: Q01DX009 (ip), vehicle: distilled water + Tween-80): 91 % of control

Structure (SMILES): C[CH2][Pb]([CH2]C)([CH2]C)[O]C(=O)COc1ccccc1
- T/C (dose: 0.38 mg/kg/injection, schedule: Q01DX009 (ip), vehicle: Klucel (hydroxypropylcellulose) (HPC)): 94 % of control
- T/C (dose: 0.75 mg/kg/injection, schedule: Q01DX009 (ip), vehicle: Klucel (hydroxypropylcellulose) (HPC)): 105 % of control
- T/C [15]: 101 % of control
- T/C [16]: 91 % of control
- T/C [17]: 97 % of control

Structure (SMILES): CO[C@H]1Nc2c(ccc(C)c2O)C(=O)N2C=C(/C=C/C(N)=O)C[C@@H]12
- T/C (dose: 0.03 mg/kg/injection, schedule: Q01DX009 (ip), vehicle: saline with Tween-80): 111 % of control
- T/C (dose: 0.05 mg/kg/injection, schedule: Q04DX003 (ip), vehicle: DMSO): 92 % of control
- T/C (dose: 0.06 mg/kg/injection, schedule: Q01DX009 (ip), vehicle: saline with Tween-80): 104 % of control
- T/C (dose: 0.1 mg/kg/injection, schedule: Q04DX003 (ip), vehicle: DMSO): 105 % of control
- T/C (dose: 0.12 mg/kg/injection, schedule: Q01DX009 (ip), vehicle: saline with Tween-80): 102 % of control
- T/C (dose: 0.2 mg/kg/injection, schedule: Q04DX003 (ip), vehicle: DMSO): 109 % of control
- T/C (dose: 0.25 mg/kg/injection, schedule: Q01DX009 (ip), vehicle: saline with Tween-80): 122 % of control
- T/C (dose: 0.4 mg/kg/injection, schedule: Q04DX003 (ip), vehicle: DMSO): 104 % of control

Structure (SMILES): CCCC(=O)c1ccco1
- T/C [3]: 98 % of control
- T/C [4]: 109 % of control
- T/C [5]: 100 % of control

Structure (SMILES): Cc1c2ccccc2c(C)c2c1ccc1ccccc12
- T/C (dose: 1.0 mg/kg/injection, schedule: Q01DX009 (ip), vehicle: saline with Tween-80): 99 % of control
- T/C (dose: 2.0 mg/kg/injection, schedule: Q01DX009 (ip), vehicle: saline with Tween-80): 106 % of control
- T/C (dose: 4.0 mg/kg/injection, schedule: Q01DX009 (ip), vehicle: saline with Tween-80): 122 % of control
- T/C (dose: 8.0 mg/kg/injection, schedule: Q01DX009 (ip), vehicle: saline with Tween-80): 113 % of control
- T/C (dose: 16.0 mg/kg/injection, schedule: Q01DX009 (ip), vehicle: saline with Tween-80): 86 % of control

Structure (SMILES): NNC(=S)N/N=C/c1ccc([N+](=O)[O-])s1
- T/C (dose: 0.78 mg/kg/injection, schedule: Q01DX009 (ip), vehicle: Klucel (hydroxypropylcellulose) (HPC)): 105 % of control
- T/C (dose: 1.56 mg/kg/injection, schedule: Q01DX009 (ip), vehicle: Klucel (hydroxypropylcellulose) (HPC)): 99 % of control
- T/C (dose: 3.12 mg/kg/injection, schedule: Q01DX009 (ip), vehicle: Klucel (hydroxypropylcellulose) (HPC)): 104 % of control
- T/C [1]: 104 % of control

Structure (SMILES): C=CC1(C)CCC2C(=CCC3C2(C)CC(O)C(O)C3(C)COC2OC(CO)C(O)C(O)C2O)C1 (stereo not given)
- T/C [15]: 116 % of control
- T/C [16]: 103 % of control
- T/C [17]: 113 % of control
- T/C (dose: 12.0 mg/kg/injection, schedule: Q01DX009 (ip), vehicle: Klucel (hydroxypropylcellulose) (HPC)): 107 % of control
- T/C (dose: 24.0 mg/kg/injection, schedule: Q01DX009 (ip), vehicle: Klucel (hydroxypropylcellulose) (HPC)): 108 % of control

Structure (SMILES): COc1cccc2c1C(=O)c1c(O)c3c(c(O)c1C2=O)C[C@@](O)(C(=O)CO)C[C@@H]3OC1CC(N(C)C)C(O)C(C)O1 (stereo not given in full)
- T/C (dose: 0.12 mg/kg/injection, schedule: Q01DX009 (ip), vehicle: saline): 100 % of control
- T/C (dose: 0.5 mg/kg/injection, schedule: Q01DX009 (ip), vehicle: saline): 152 % of control and 166 % of control
- T/C (dose: 1.0 mg/kg/injection, schedule: Q01DX009 (ip), vehicle: saline): 153 % of control and 205 % of control
- T/C (dose: 2.0 mg/kg/injection, schedule: Q01DX009 (ip), vehicle: saline): 172 % of control and 261 % of control

Structure (SMILES): CN(C)c1cccc(F)c1C(=O)NC(=O)Nc1ccc(Cl)cc1
- T/C (dose: 37.5 mg/kg/injection, schedule: Q01DX009 (ip), vehicle: saline with Tween-80): 97 % of control
- T/C (dose: 75.0 mg/kg/injection, schedule: Q01DX009 (ip), vehicle: saline with Tween-80): 111 % of control
- T/C (dose: 150.0 mg/kg/injection, schedule: Q01DX009 (ip), vehicle: saline with Tween-80): 101 % of control
